These results are taken from PMC6356859 (ACS Omega, 2019).

Entries after “also recorded” stand apart in the source; their conditions may differ. Like-named read-outs stand apart in the source and are kept apart here.

The test system of experiment [1] is EBOV. Nature of the experiment: microbe, parasite or virus in culture. The class given is cell-based, Ebola virus.
For experiment [2], the system named is EBOV. The following applies: cited from earlier work.
The test system of experiment [3] is EBOV. As to conditions: read-out: IC50 for the inhibition of virus entry in cells; cited from earlier work.
For experiment [4], the system named is EBOV. The following applies: cited from earlier work. The source holds these as a separate data set.

`Nc1nc2c(ncn2COCCO)c(=O)[nH]1` [Acyclovir]: the “EBOV activity (in words)” value in the experiment with EBOV [1] is given as “lacked an activity”.

Take `C[C@H]1[C@H](OC(=O)CCC(=O)O)O[C@@H]2O[C@@]3(C)CC[C@H]4[C@H](C)CC[C@@H]1[C@@]24OO3` [Artesunate]: the IC50 in the experiment on EBOV [1] (Zaire ebolavirus, HeLa, read-out: IC50 (EBOV inhibitory activity)) was 8.2 µM.

As to `C[C@H]1Cc2c([nH]c3cc(Cl)c(F)cc23)[C@@]2(N1)C(=O)Nc1ccc(Cl)cc12` [Cipargamin], the selectivity indexes in the experiment with EBOV [1] is recorded as < 5.

Take `NC(=O)c1nc(F)c[nH]c1=O` [Favipiravir (T-705), Favipiravir]: in the experiment on EBOV [2], the EC50 is 10 to 63 mg/L and the IC50 is 67 µM. For the same compound, the “EBOV activity (in words)” value in the experiment with EBOV [1] was “inactive; also recorded: no activity at the concentrations tested”.

Consider `CCCCN(CCCC)CC(O)c1cc(Cl)cc2c1-c1ccc(Cl)cc1/C2=C/c1ccc(Cl)cc1` (stereo not shown) [Lumefantrine], for which the “EBOV activity (in words)” value in the experiment on EBOV [1] was “inactive”.

Take `Clc1ccc2c(N3CCN(CCCN4CCN(c5ccnc6cc(Cl)ccc56)CC4)CC3)ccnc2c1` [Piperaquine Phosphate 4H20]: in the experiment with EBOV [1], the “EBOV activity (in words)” value was “inactive”.

On to `CCN(CC)Cc1cc(Nc2ccnc3cc(Cl)ccc23)ccc1O` [amodiaquine], for which, in the experiment with EBOV [3], the IC50 is 2.6 µM.

For `CCN(CC)CCCC(C)Nc1ccnc2cc(Cl)ccc12` (stereo not shown) [chloroquine], the EC50 with EBOV [4] was 4 µM.
